# Measurements: PubChem BioAssay AID1259407 (Chemical Carcinogenesis Research Information System (CCRIS), 2018)
# Activity calls are given as the source filed them. The rule behind the calls is not given here.
# Tested on: CCRIS mutagenicity, Ames/micronucleus/aberration tests
# Assay: CCRIS mutagenicity studies
# Conditions: Test System: AMES SALMONELLA TYPHIMURIUM
# [1] = Strain/Indicator: TA98, Metabolic Activation: NONE, Method: STANDARD PLATE
# [2] = Strain/Indicator: TA100, Metabolic Activation: NONE, Method: STANDARD PLATE
# [3] = Strain/Indicator: TA98, Metabolic Activation: NONE, Method: PREINCUBATION
smiles,measurement,setting,value
C=C(C)C1Cc2c(cc(O)c3c(=O)c4ccccc4n(C)c23)O1 (stereo not given),mutagenic call,[1],inactive; negative
same,mutagenic call,"Strain/Indicator: TA98, Metabolic Activation: RAT, LIVER, S-9, 3-METHYLCHOLANTHRENE, Method: STANDARD PLATE",active; positive
same,mutagenic call,"Strain/Indicator: TA98, Metabolic Activation: RAT, LIVER, S-9, PHENOBARBITAL, Method: STANDARD PLATE",active; positive
same,mutagenic call,"Strain/Indicator: TA98, Metabolic Activation: RAT, LIVER, S-9, Method: STANDARD PLATE",active; positive
same,mutagenic call,[2],inactive; negative
same,mutagenic call,"Strain/Indicator: TA100, Metabolic Activation: RAT, LIVER, S-9, 3-METHYLCHOLANTHRENE, Method: STANDARD PLATE",active; positive
same,mutagenic call,"Strain/Indicator: TA100, Metabolic Activation: RAT, LIVER, S-9, PHENOBARBITAL, Method: STANDARD PLATE",active; positive
same,mutagenic call,"Strain/Indicator: TA100, Metabolic Activation: RAT, LIVER, S-9, Method: STANDARD PLATE",active; positive
C[n+]1c2ccccc2cc2ccc(N)cc21,mutagenic call,"Strain/Indicator: TA1535, Metabolic Activation: NONE, Method: PREINCUBATION",inactive; negative
same,mutagenic call,"Strain/Indicator: TA1535, Metabolic Activation: RAT, LIVER, S-9, TETRACHLOROBIPHENYL, Method: PREINCUBATION",inactive; negative
same,mutagenic call,"Strain/Indicator: TA1537, Metabolic Activation: NONE, Method: PREINCUBATION",active; positive
same,mutagenic call,"Strain/Indicator: TA1537, Metabolic Activation: RAT, LIVER, S-9, TETRACHLOROBIPHENYL, Method: PREINCUBATION",active; positive
same,mutagenic call,"Strain/Indicator: TA1538, Metabolic Activation: NONE, Method: PREINCUBATION",inactive; negative
same,mutagenic call,"Strain/Indicator: TA1538, Metabolic Activation: RAT, LIVER, S-9, TETRACHLOROBIPHENYL, Method: PREINCUBATION",active; positive
same,mutagenic call,"Strain/Indicator: TA1977, Metabolic Activation: NONE, Method: PREINCUBATION",active; positive
same,mutagenic call,"Strain/Indicator: TA1977, Metabolic Activation: RAT, LIVER, S-9, TETRACHLOROBIPHENYL, Method: PREINCUBATION",active; positive
same,mutagenic call,"Strain/Indicator: TA1978, Metabolic Activation: RAT, LIVER, S-9, TETRACHLOROBIPHENYL, Method: PREINCUBATION",inactive; negative
CC1(C(=O)NCc2ccccc2)CO1 (stereo not given),mutagenic call,"Strain/Indicator: TA100, Metabolic Activation: MOUSE, LIVER, S-9, AROCLOR 1254, Method: STANDARD PLATE",active; positive
same,mutagenic call,[2],active; positive
O=[N+]([O-])c1ccc2c(c1)Cc1cccc([N+](=O)[O-])c1-2,mutagenic call,"Strain/Indicator: TA98, Metabolic Activation: HAMSTER, LIVER, S-9, AROCLOR 1254 (30%), Method: PREINCUBATION",active; positive
same,mutagenic call,[3],active; positive
same,mutagenic call,"Strain/Indicator: TA98, Metabolic Activation: RAT, LIVER, S-9, AROCLOR 1254 (30%), Method: PREINCUBATION",active; positive
same,mutagenic call,"Strain/Indicator: TA100, Metabolic Activation: HAMSTER, LIVER, S-9, AROCLOR 1254 (30%), Method: PREINCUBATION",active; positive
same,mutagenic call,"Strain/Indicator: TA100, Metabolic Activation: NONE, Method: PREINCUBATION",active; positive
same,mutagenic call,"Strain/Indicator: TA100, Metabolic Activation: RAT, LIVER, S-9, AROCLOR 1254 (30%), Method: PREINCUBATION",active; positive
CCCCN(N)CCCC,mutagenic call,"Strain/Indicator: TA100, Metabolic Activation: NONE, Method: PREINCUBATION (11 HR GROWTH PERIOD FOR BACTERIA)",active; positive
same,mutagenic call,[2],inactive; negative
same,mutagenic call,"Strain/Indicator: TA100, Metabolic Activation: RAT, LIVER, S-9, AROCLOR 1254, Method: STANDARD PLATE",inactive; negative
same,mutagenic call,"Strain/Indicator: TA100, Metabolic Activation: RAT, LIVER, S-9, PCB, Method: PREINCUBATION (11 HR GROWTH PERIOD FOR BACTERIA)",inactive; negative
same,mutagenic call,"Strain/Indicator: TA102, Metabolic Activation: NONE, Method: PREINCUBATION (5 HR GROWTH PERIOD FOR BACTERIA)",active; positive
same,mutagenic call,"Strain/Indicator: TA102, Metabolic Activation: NONE, Method: PREINCUBATION (7 HR GROWTH PERIOD FOR BACTERIA)",inactive; negative
same,mutagenic call,"Strain/Indicator: TA102, Metabolic Activation: NONE, Method: STANDARD PLATE",inactive; negative
same,mutagenic call,"Strain/Indicator: TA102, Metabolic Activation: RAT, LIVER, S-9, AROCLOR 1254, Method: STANDARD PLATE",inactive; negative
same,mutagenic call,"Strain/Indicator: TA102, Metabolic Activation: RAT, LIVER, S-9, PCB, Method: PREINCUBATION (5 OR 7 HR GROWTH PERIOD FOR BACTERIA)",inactive; negative
O=[N+]([O-])c1ccc(-c2nc3sccn3c2[N+](=O)[O-])cc1,mutagenic call,[1],active; positive
same,mutagenic call,[2],active; positive
same,mutagenic call,"Strain/Indicator: TA1535, Metabolic Activation: NONE, Method: STANDARD PLATE",inactive; negative
same,mutagenic call,"Strain/Indicator: TA1537, Metabolic Activation: NONE, Method: STANDARD PLATE",active; positive
same,mutagenic call,"Strain/Indicator: TA1538, Metabolic Activation: NONE, Method: STANDARD PLATE",active; positive
Cc1ccc(N=[N+]([O-])c2ccc(C)c(N)c2)cc1N,mutagenic call,[3],inactive; negative
same,mutagenic call,"Strain/Indicator: TA98, Metabolic Activation: NONE, Method: SUSPENSION/PLATE",inactive; negative
same,mutagenic call,"Strain/Indicator: TA98, Metabolic Activation: RAT, LIVER, S-9, PCB, Method: PREINCUBATION",active; positive
same,mutagenic call,"Strain/Indicator: TA98, Metabolic Activation: RAT, LIVER, S-9, PHENOBARBITAL AND 5,6-BENZOFLAVONE, Method: SUSPENSION/PLATE",active; positive
same,mutagenic call,"Strain/Indicator: TA100, Metabolic Activation: NONE, Method: SUSPENSION/PLATE",inactive; negative
same,mutagenic call,"Strain/Indicator: TA100, Metabolic Activation: RAT, LIVER, S-9, PHENOBARBITAL AND 5,6-BENZOFLAVONE, Method: SUSPENSION/PLATE",inactive; negative
